Converted amounts (≈) assume the structure as drawn. Where two headings read alike, the source gives them in different places.
Tests used:
E. coli ATCC 25922 = assay: Antibacterial activity, MIC by broth microdilution (CLSI); assay type: cell-based; conditions: Escherichia coli, ATCC25922; E. coli ATCC 25922, 35° C., 18 to 24 hours; read-out: MIC(E. coli)
Procedure: (§1) The in vitro minimum inhibitory concentration (MIC) was determined in accordance with the CLSI guidelines, and was measured using the broth microdilution method.
(§2) The experimental process is briefly described as follows: The test compound was dissolved in DMSO to prepare a […] stock solution, which was then prepared into 11 twice-diluted 100× high-concentration working solutions (the final concentration of the system was 64 μg/mL-0.06 μg/mL) using DMSO. The strains (K. pneumoniae ATCC13883 and E. coli ATCC 25922) frozen in −80° C. glycerol were inoculated into solid agar medium, placed in an incubator at 35° C. for 18-24 hours of incubation. After the preparation of strains was completed, an appropriate amount of solid plate culture was collected, resuspended in physiological saline, and mixed well. The bacterial suspension was adjusted to a suitable turbidity using a turbidity meter, containing approximately 1×10^8 cfu/mL bacteria. Then the bacterial suspension with the adjusted turbidity was diluted to a bacterial concentration of 5×10^5 cfu/ml using the culture medium for measurement, to complete the preparation of the inoculum solution. 198 μL of the inoculum solution was inoculated into a 96-well plate, and then added with 2 μL of a 100× high-concentration working solution of the compound. Then the 96-well plate was placed at 35° C. for 18 to 24 hours of incubation.

K. pneumoniae ATCC13883 = assay: as above; assay type: cell-based; conditions: Klebsiella pneumoniae; K. pneumoniae ATCC13883, 35° C., 18 to 24 hours; read-out: MIC(K. Pneumoniae)
Procedure: as §1, §2

[1] = biological target: recombinant Pseudomonas aeruginosa LpxC (Pseudomonas aeruginosa (strain ATCC 15692 / DSM 22644 / CIP 104116 / JCM 14847 / LMG 12228 / 1C / PRS 101 / PAO1), UniProt P47205); assay: Inhibition of LpxC enzymatic activity (fluorescamine assay); assay type: biochemical
Procedure: The degree of inhibition of the enzymatic activity of recombinant Pseudomonas aeruginosa LpxC by the compounds of the present disclosure under in vitro conditions was determined using the following method.
The experimental procedure is briefly described as follows: The test compound was first dissolved in DMSO to prepare a 10 mM stock solution. The reaction was carried out in a 96-well microplate. First, 20 μL of recombinant Pseudomonas aeruginosa LpxC (purchased from Signalway Antibody, product number AP74647-2) was added to each well, with a final concentration of 5 nM. 5 μL of the compound to be tested was then added, and the compound was diluted 4 times to 8 concentration points with a concentration range of 0.61-10,000 nM. 5 μL of LpxC substrate UDP-3-O—(R-3-hydroxydecanoyl)-GlcNAc (purchased from Biosynth Carbosynth, product number: mu75071) was added, with a final concentration of the substrate of 10 μM. The plate was incubated at 25° C. for 120 minutes. Then 20 μL of 2.0 mg/mL fluorescamine (purchased from sigmaaldrich, product number: F9015, solvent: 1:1 dimethylformamide/acetonitrile) was added to the reaction system, and mixed well for 10 minutes of reaction. Finally, 50 μL of 200 mM sodium phosphate buffer (pH 8.0) was added to terminate the reaction. Reading was carried out using a microplate reader (BMG), and the excitation and emission wavelengths were 390 and 495 nm respectively. By comparing with the fluorescence intensity ratio of the control group ([…]), the percentage inhibition rate of the compound at each concentration was calculated.

[2] = recombinant P. aeruginosa LpxC 5 nM, substrate 10 μM, 25° C., 120 minutes, read-out: IC50

Structure (SMILES) | MIC (E. coli ATCC 25922) | MIC (K. pneumoniae ATCC13883) | IC50 [1, 2] | IC50 [1]
C[C@H](O)c1nccn1Cc1cc(-c2ccc(C#Cc3ccc(C(=O)N4CCN(C)CC4)cc3)cc2)on1 [Example 42, (S)-(4-((4-(3-((2-(1-hydroxyethyl)-1H-imidazol-1-yl)methyl)isoxazol-5-yl)phenyl)ethynyl)phenyl)(4-methylpiperazin-1-yl)methanone] | 2 µg/mL (≈ 4.04 µM) | 4 µg/mL (≈ 8.07 µM) | 5.78 nM | –
C[C@H](O)c1nccn1Cc1cc(-c2ccc(C#Cc3ccc(C(=O)N4CCOCC4)cc3)cc2)on1 [Example 6, (S)-(4-((4-(3-((2-(1-hydroxyethyl)-1H-imidazol-1-yl)methyl)isoxazol-5-yl)phenyl)ethynyl)phenyl)(morpholino)methanone] | 2 µg/mL (≈ 4.14 µM) | 4 µg/mL (≈ 8.29 µM) | 12.9 nM | –
C[C@H](O)c1nccn1Cc1cc(-c2ccc(C#Cc3ccncc3)cc2)on1 [Example 10, (S)-1-(1-((5-(4-(pyridin-4-ylethynyl)phenyl)isoxazol-3-yl)methyl)-1H-imidazol-2-yl)ethan-1-ol] | 0.5 µg/mL (≈ 1.35 µM) | 1 µg/mL (≈ 2.7 µM) | 30.4 nM | –
C[C@H](O)c1nccn1Cc1cc(-c2ccc(C#Cc3ccc(CN4CCOCC4)cc3)cc2)on1 [Example 2, (S)-1-(1-((5-(4-((4-(morpholinomethyl)phenyl)ethynyl)phenyl)isoxazol-3-yl)methyl)-1H-imidazol-2-yl)ethan-1-ol] | 0.5 µg/mL (≈ 1.07 µM) | 1 µg/mL (≈ 2.13 µM) | 3.07 nM | –
C[C@H](O)c1nccn1Cc1cc(-c2ccc(C#Cc3ccc(CN4CCNC(=O)C4)nc3)cc2)on1 [Example 114, (S)-4-((5-((4-(3-((2-(1-hydroxyethyl)-1H-imidazol-1-yl)methyl)isoxazol-5-yl)phenyl)ethynyl)pyridin-2-yl)methyl)piperazin-2-one] | 2 µg/mL (≈ 4.14 µM) | 8 µg/mL (≈ 16.6 µM) | 10.5 nM | –
C[C@H](O)c1nccn1Cc1cc(-c2ccc(C#Cc3ccc(CN4CCC(CO)CC4)cc3)cc2)on1 [Example 56, (S)-1-(1-((5-(4-((4-((4-(hydroxymethyl)piperidin-1-yl)methyl)phenyl)ethynyl)phenyl)isoxazol-3-yl)methyl)-1H-imidazol-2-yl)ethan-1-ol] | 2 µg/mL (≈ 4.03 µM) | 4 µg/mL (≈ 8.05 µM) | 14.7 nM | –
C[C@H](O)c1nccn1Cc1cc(-c2ccc(C#Cc3ccc(C(N)=O)cc3)cc2)on1 [Example 23, (S)-4-((4-(3-((2-(1-hydroxyethyl)-1H-imidazol-1-yl)methyl)isoxazol-5-yl)phenyl)ethynyl)benzamide] | 0.25 µg/mL (≈ 0.606 µM) | 1 µg/mL (≈ 2.42 µM) | 7.75 nM | –
C[C@H](O)c1nccn1Cc1cc(-c2ccc(C#Cc3ccc(CO)nc3)cc2)on1 [Example 37, (S)-1-(1-((5-(4-((6-(hydroxymethyl)pyridin-3-yl)ethynyl)phenyl)isoxazol-3-yl)methyl)-1H-imidazol-2-yl)ethan-1-ol] | 1 µg/mL (≈ 2.5 µM) | 2 µg/mL (≈ 4.99 µM) | 3.55 nM | –
C[C@H](O)c1nccn1Cc1cc(-c2ccc(C#Cc3ccc(CNCCO)nc3)cc2)on1 [Example 60] | 2 µg/mL (≈ 4.51 µM) | 4 µg/mL (≈ 9.02 µM) | 26.4 nM | –
C[C@H](O)c1nccn1Cc1cc(-c2ccc(C#Cc3ccc(CCC(=O)O)cc3)cc2)on1 [Example 27, (S)-3-(4-((4-(3-((2-(1-hydroxyethyl)-1H-imidazol-1-yl)methyl)isoxazol-5-yl)phenyl)ethynyl)phenyl)propanoic acid] | 1 µg/mL (≈ 2.27 µM) | 2 µg/mL (≈ 4.53 µM) | 4.25 nM | –
C[C@H](O)c1nccn1Cc1cc(-c2ccc(C#Cc3ccc(C(O)CO)cc3)cc2)on1 (stereo partly drawn) [Example 30, 1-(4-((4-(3-((2-((S)-1-hydroxyethyl)-1H-imidazol-1-yl)methyl)isoxazol-5-yl)phenyl)ethynyl)phenyl)ethane-1,2-diol] | 0.5 µg/mL (≈ 1.16 µM) | 1 µg/mL (≈ 2.33 µM) | 12.7 nM | –
C[C@H](O)c1nccn1Cc1cc(-c2ccc(C#Cc3ccc(CN4CCOCC4)cc3)cc2)no1 [Example 3, (S)-1-(1-((3-(4-((4-(morpholinomethyl)phenyl)ethynyl)phenyl)isoxazol-5-yl)methyl)-1H-imidazol-2-yl)ethan-1-ol] | 1 µg/mL (≈ 2.13 µM) | 2 µg/mL (≈ 4.27 µM) | 24.9 nM | –
C[C@H](O)c1nccn1Cc1cc(-c2ccc(C#Cc3ccc(CO)cc3)cc2)on1 [Example 46, (S)-1-(1-((5-(4-((4-(hydroxymethyl)phenyl)ethynyl)phenyl)isoxazol-3-yl)methyl)-1H-imidazol-2-yl)ethan-1-ol] | 0.25 µg/mL (≈ 0.626 µM) | 0.5 µg/mL (≈ 1.25 µM) | 23 nM | –
C[C@H](O)c1nccn1Cc1cc(-c2ccc(C#Cc3ccc(CCC(=O)O)nc3)cc2)on1 [Example 58, (S)-3-(5-((4-(3-((2-(1-hydroxyethyl)-1H-imidazol-1-yl)methyl)isoxazol-5-yl)phenyl)ethynyl)pyridin-2-yl)propanoic acid] | 4 µg/mL (≈ 9.04 µM) | 8 µg/mL (≈ 18.1 µM) | 22 nM | –
C[C@H](O)c1nccn1Cc1cc(-c2ccc(C#Cc3cccc(OCC(N)=O)c3)cc2)on1 [Example 64, (S)-2-(3-((4-(3-((2-(1-hydroxyethyl)-1H-imidazol-1-yl)methyl)isoxazol-5-yl)phenyl)ethynyl)phenoxy)acetamide] | 4 µg/mL (≈ 9.04 µM) | 2 µg/mL (≈ 4.52 µM) | 21.6 nM | –
C[C@H](O)c1nccn1Cc1cc(-c2ccc(C#Cc3ccccc3)cc2)on1 [Example 7, (S)-1-(1-((5-(4-(phenylethynyl)phenyl)isoxazol-3-yl)methyl)-1H-imidazol-2-yl)ethan-1-ol] | 0.25 µg/mL (≈ 0.677 µM) | 0.5 µg/mL (≈ 1.35 µM) | 73.1 nM | –
C[C@H](O)c1nccn1Cc1cc(-c2ccc(C#Cc3ccc(C(=O)O)cc3)cc2)on1 [Example 24, (S)-4-((4-(3-((2-(1-hydroxyethyl)-1H-imidazol-1-yl)methyl)isoxazol-5-yl)phenyl)ethynyl)benzoic acid] | 4 µg/mL (≈ 9.68 µM) | 8 µg/mL (≈ 19.4 µM) | 22.2 nM | –
C[C@H](O)c1nccn1Cc1cc(-c2ccc(C#Cc3ccc(C(N)=O)nc3)cc2)on1 [Example 28, (S)-5-((4-(3-((2-(1-Hydroxyethyl)-1H-imidazol-1-yl)methyl)isoxazol-5-yl)phenyl)ethynyl)picolinamide] | 1 µg/mL (≈ 2.42 µM) | 2 µg/mL (≈ 4.84 µM) | – | 19.9 nM
C[C@H](O)c1nccn1Cc1cc(-c2ccc(C#Cc3ccc(CC(N)=O)nc3)cc2)on1 [Example 62, (S)-2-(5-((4-(3-((2-(1-hydroxyethyl)-1H-imidazol-1-yl)methyl)isoxazol-5-yl)phenyl)ethynyl)pyridin-2-yl)acetamide] | 1 µg/mL (≈ 2.34 µM) | 4 µg/mL (≈ 9.36 µM) | 21.3 nM | –
C[C@H](O)c1nccn1Cc1cc(-c2ccc(C#Cc3cccc(C(N)=O)c3)cc2)on1 [Example 63, (S)-3-((4-(3-((2-(1-hydroxyethyl)-1H-imidazol-1-yl)methyl)isoxazol-5-yl)phenyl)ethynyl)benzamide] | 2 µg/mL (≈ 4.85 µM) | 4 µg/mL (≈ 9.7 µM) | 65.1 nM | –
C[C@H](O)c1nccn1Cc1cc(-c2ccc(C#Cc3ccc(CC(=O)O)nc3)cc2)on1 [Example 39, (S)-2-(5-((4-(3-((2-(1-hydroxyethyl)-1H-imidazol-1-yl)methyl)isoxazol-5-yl)phenyl)ethynyl)pyridin-2-yl)acetic acid] | 0.5 µg/mL (≈ 1.17 µM) | 1 µg/mL (≈ 2.33 µM) | 19.9 nM | –
C[C@H](O)c1nccn1Cc1cc(-c2ccc(C#Cc3ccc(OCCCN4CCOCC4)cc3)cc2)on1 [Example 75, (S)-1-(1-((5-(4-((4-(3-morpho-linopropoxy)phenyl)ethynyl)phenyl)isoxazol-3-yl)methyl)-1H-imidazol-2-yl)ethan-1-ol] | 1 µg/mL (≈ 1.95 µM) | 2 µg/mL (≈ 3.9 µM) | 61.2 nM | –
C[C@H](O)c1nccn1Cc1cc(-c2ccc(C#Cc3ccc(CNCC(N)=O)nc3)cc2)on1 [Example 61] | 1 µg/mL (≈ 2.19 µM) | 4 µg/mL (≈ 8.76 µM) | 74.2 nM | –
